Patent US20230382925A1, “MODULATORS OF CYSTIC FIBROSIS TRANSMEMBRANE CONDUCTANCE REGULATOR” (VERTEX PHARMACEUTICALS INCORPORATED, priority 2020, published 2023)
Values joined by “and” are separate entries in the source; they are usually repeats but may differ in a detail not shown here. Equal values may be shown once. Read-outs that look alike come from different tables or passages of the source.

Key:
[1] = amide bond, 13-membered ring, DMF
[2] = target: CFTR (Homo sapiens, UniProt P13569); test: Membrane Potential Dye, Enteroid Assay B; assay type: cell-based
Sequence of CFTR (P13569 with tags, fused parts or gaps DEL508-508): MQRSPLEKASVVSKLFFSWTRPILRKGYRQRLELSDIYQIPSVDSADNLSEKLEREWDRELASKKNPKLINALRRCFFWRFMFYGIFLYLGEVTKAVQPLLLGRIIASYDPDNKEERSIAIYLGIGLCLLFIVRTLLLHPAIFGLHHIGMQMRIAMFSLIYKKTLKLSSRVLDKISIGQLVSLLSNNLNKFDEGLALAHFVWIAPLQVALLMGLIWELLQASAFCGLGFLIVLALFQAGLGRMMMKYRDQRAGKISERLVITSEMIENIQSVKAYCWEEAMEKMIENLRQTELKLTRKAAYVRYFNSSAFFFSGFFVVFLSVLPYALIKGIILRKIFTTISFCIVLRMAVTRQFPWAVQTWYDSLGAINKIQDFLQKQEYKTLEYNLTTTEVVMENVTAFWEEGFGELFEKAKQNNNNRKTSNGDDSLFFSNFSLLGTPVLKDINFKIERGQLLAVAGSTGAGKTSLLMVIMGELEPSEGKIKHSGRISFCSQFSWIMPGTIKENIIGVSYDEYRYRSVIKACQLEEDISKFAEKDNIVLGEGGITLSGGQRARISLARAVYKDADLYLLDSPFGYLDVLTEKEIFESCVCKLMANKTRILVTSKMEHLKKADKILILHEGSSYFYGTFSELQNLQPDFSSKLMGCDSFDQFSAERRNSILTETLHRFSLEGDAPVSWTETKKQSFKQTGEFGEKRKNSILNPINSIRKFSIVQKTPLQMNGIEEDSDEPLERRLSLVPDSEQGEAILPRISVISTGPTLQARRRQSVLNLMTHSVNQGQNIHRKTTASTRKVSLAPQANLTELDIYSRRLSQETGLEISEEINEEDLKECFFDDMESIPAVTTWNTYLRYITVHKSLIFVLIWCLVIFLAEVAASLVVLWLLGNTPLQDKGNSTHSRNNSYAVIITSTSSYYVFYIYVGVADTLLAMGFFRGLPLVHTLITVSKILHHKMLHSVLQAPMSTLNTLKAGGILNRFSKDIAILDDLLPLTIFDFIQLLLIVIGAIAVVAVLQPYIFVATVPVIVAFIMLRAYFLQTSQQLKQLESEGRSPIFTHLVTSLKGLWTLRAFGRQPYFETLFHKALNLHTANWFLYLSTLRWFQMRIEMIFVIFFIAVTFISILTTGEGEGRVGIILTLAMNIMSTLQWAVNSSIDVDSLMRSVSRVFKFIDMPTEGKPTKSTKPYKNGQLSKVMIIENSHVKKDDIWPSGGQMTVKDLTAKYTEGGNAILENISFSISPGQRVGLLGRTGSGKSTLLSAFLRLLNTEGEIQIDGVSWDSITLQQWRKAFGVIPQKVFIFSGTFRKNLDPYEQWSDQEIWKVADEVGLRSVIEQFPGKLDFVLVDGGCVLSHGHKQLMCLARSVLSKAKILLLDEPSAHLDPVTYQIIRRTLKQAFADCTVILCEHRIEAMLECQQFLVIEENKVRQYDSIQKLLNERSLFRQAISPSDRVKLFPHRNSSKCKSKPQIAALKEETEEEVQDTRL
How it was run: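 Human intestinal enteroid cells exposed to compound 18-24 h at 37 °C, then loaded with methyl oxonol membrane-potential dye plus CaCC blockers. Chloride transport triggered in chloride-free buffer with 10 μM forskolin, 100 μM IBMX, 300 nM Compound III; fluorescence read 15 min, expressed as % of triple-corrector/potentiator combination control.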

[3] = Table 10, read-out: Ent. B EC50

**Q.** For `Cc1cccc(C)c1-c1cc2cc(n1)NS(=O)(=O)c1cccc(c1)C(=O)N(C1CC3(CCN(C(=O)OC(C)(C)C)CC3)C1)[C@H](CC(C)C)CO2`, which ring closure, yield after HPLC ([1]; from Cc1cccc(C)c1-c1cc(OC[C@@H](CC(C)C)NC2CC3(CCN(C(=O)OC(C)(C)C)CC3)C2)cc(NS(=O)(=O)c2cccc(C(=O)O)c2)n1, HATU/DIEA, 34.7 mM, 14.0 h) is on record?
**A.** 16%

**Q.** With `Cc1cccc(C)c1-c1cc2nc(n1)NS(=O)(=O)c1cccc(c1)C(=O)N(C1CC(C(=O)OC(C)(C)C)C1)[C@H](CC(C)C)CO2` (stereo partly shown) as the molecule, how does the ring closure, yield after HPLC ([1]; from Cc1cccc(C)c1-c1cc(OC[C@@H](CC(C)C)NC2CC(C(=O)OC(C)(C)C)C2)nc(NS(=O)(=O)c2cccc(C(=O)O)c2)n1, HATU/DIEA, 16.0 h, 2 steps) read?
**A.** 79%

**Q.** With `Cc1cccc(C)c1-c1cc2nc(n1)NS(=O)(=O)c1cccc(c1)C(=O)N(C1CC(CNC(=O)OC(C)(C)C)C1)[C@H](CC(C)C)CO2` (stereo partly shown) as the molecule, how does the ring closure, yield after HPLC ([1]; from Cc1cccc(C)c1-c1cc(OC[C@@H](CC(C)C)NC2CC(CNC(=O)OC(C)(C)C)C2)nc(NS(=O)(=O)c2cccc(C(=O)O)c2)n1, HATU/DIEA, 7.0 h, 2 steps) read?
**A.** 15% and 19%

**Q.** For `Cc1cccc(C)c1-c1cc2nc(n1)NS(=O)(=O)c1cccc(c1)C(=O)N(C1CC(CO)C1)[C@H](CC(C)C)CO2` (stereo partly shown), which ring closure, yield after HPLC ([1]; from Cc1cccc(C)c1-c1cc(OC[C@@H](CC(C)C)NC2CC(CO)C2)nc(NS(=O)(=O)c2cccc(C(=O)O)c2)n1, HATU/DIPEA, 32.3 mM, 1.0 h) is on record?
**A.** 11%

**Q.** Which ring closure, yield after HPLC ([1]; from Cc1cccc(C)c1-c1cc(OC[C@@H](CC(C)C)NC2CC(NC(=O)OC(C)(C)C)C2)nc(NS(=O)(=O)c2cccc(C(=O)O)c2)n1, HATU/DIPEA, 22.4 mM, 6.0 h, 2 steps) does the source give for `Cc1cccc(C)c1-c1cc2nc(n1)NS(=O)(=O)c1cccc(c1)C(=O)N(C1CC(NC(=O)OC(C)(C)C)C1)[C@H](CC(C)C)CO2` (stereo partly shown) here?
**A.** 7% and 6%

**Q.** For `Cc1cccc(C)c1-c1cc2nc(n1)NS(=O)(=O)c1cccc(c1)C(=O)N(C1CC(OC(C)C)C1)[C@H](CC1(C(F)(F)F)CC1)CO2` (stereo partly shown), which ring closure, yield after HPLC ([1]; from Cc1cccc(C)c1-c1cc(OC[C@@H](CC2(C(F)(F)F)CC2)NC2CC(OC(C)C)C2)nc(NS(=O)(=O)c2cccc(C(=O)O)c2)n1, HATU/TEA, 44.0 mM, 16.0 h) is on record?
**A.** 18%

**Q.** With `Cc1cccc(C)c1-c1cc2nc(n1)NS(=O)(=O)c1cccc(c1)C(=O)N(C1CC3(CC3)C1)C(CC(F)(F)F)CO2` (stereo not shown) as the molecule, how does the ring closure, yield after HPLC ([1]; from Cc1cccc(C)c1-c1cc(OCC(CC(F)(F)F)NC2CC3(CC3)C2)nc(NS(=O)(=O)c2cccc(C(=O)O)c2)n1, HATU/TEA, 18.3 mM, 18.0 h) read?
**A.** 15%

**Q.** Which ring closure, yield after HPLC ([1]; from Cc1cccc(C)c1-c1cc(OC[C@@H](CC(C)(C)C)NC2CCC2C2CC2)nc(NS(=O)(=O)c2cccc(C(=O)O)c2)n1, CDMT/NMM, 25.0 °C, 2 steps) does the source give for `Cc1cccc(C)c1-c1cc2nc(n1)NS(=O)(=O)c1cccc(c1)C(=O)N(C1CCC1C1CC1)[C@H](CC(C)(C)C)CO2` (stereo partly shown) here?
**A.** 2%

**Q.** With `Cc1cccc(C)c1-c1cc2nc(n1)NS(=O)(=O)c1cccc(c1)C(=O)N(C1CN(C(=O)OC(C)(C)C)C(C)(C)C1)[C@H](CC(C)C)CO2` (stereo partly shown) as the molecule, how does the ring closure, yield after HPLC ([1]; from Cc1cccc(C)c1-c1cc(OC[C@@H](CC(C)C)NC2CN(C(=O)OC(C)(C)C)C(C)(C)C2)nc(NS(=O)(=O)c2cccc(C(=O)O)c2)n1, COMU/DIEA, 2 steps) read?
**A.** 8% and 4%

**Q.** For `Cc1cccc(C)c1-c1cc2nc(n1)NS(=O)(=O)c1cccc(n1)C(=O)N(C1CC3(C1)CC(C(C)(C)O)C3)[C@H](CC(C)(C)C)CO2` (stereo partly shown), which ring closure, yield after HPLC ([1]; from Cc1cccc(C)c1-c1cc(OC[C@@H](CC(C)(C)C)NC2CC3(C2)CC(C(C)(C)O)C3)nc(NS(=O)(=O)c2cccc(C(=O)O)n2)n1, HATU/DIEA, 26.7 mM, 25.0 °C, 17.0 h) is on record?
**A.** 28%

**Q.** What does the source list for `COCCn1cc(N2C(=O)c3cccc(c3)S(=O)(=O)Nc3nc(cc(-c4c(C)cccc4C)n3)OC[C@H]2CCC(C)C)cn1` [Compound 6, (11R)-6-(2,6-Dimethylphenyl)-11-isopentyl-12-[1-(2-methoxyethyl)pyrazol-4-yl]-2,2-dioxo-9-oxa-2λ^6-thia-3,5,12,19-tetrazatricyclo[12.3.1.14,8]nonadeca-1(18),4(19),5,7,14,16-hexaen-13-one]?
**A.** ring closure, yield after HPLC ([1]; from COCCn1cc(N[C@H](CCC(C)C)COc2cc(-c3c(C)cccc3C)nc(NS(=O)(=O)c3cccc(C(=O)O)c3)n2)cn1, CDMT/NMM, 48.0 h, 2 steps): 16%; Ent. B Max Activity (%) ([2]; Table 10): +++ (+++ is >60%); EC50 [2, 3]: < 1000 nM

**Q.** What does the source list for `Cc1cccc(C)c1-c1cc2nc(n1)NS(=O)(=O)c1cccc(c1)C(=O)N(c1cnn(C)c1)[C@H](CCC(C)C)CO2` [Compound 7, (11R)-6-(2,6-Dimethylphenyl)-11-isopentyl-12-(1-methylpyrazol-4-yl)-2,2-dioxo-9-oxa-2λ^6-thia-3,5,12,19-tetrazatricyclo[12.3.1.14,8]nonadeca-1(18),4(19),5,7,14,16-hexaen-13-one]?
**A.** ring closure, yield after HPLC ([1]; from Cc1cccc(C)c1-c1cc(OC[C@@H](CCC(C)C)Nc2cnn(C)c2)nc(NS(=O)(=O)c2cccc(C(=O)O)c2)n1, CDMT/NMM, 48.0 h, 2 steps): 19%; Ent. B Max Activity (%) ([2]; Table 10): +++ (+++ is >60%); EC50 [2, 3]: < 1000 nM

**Q.** Which results are given for `Cc1cc(F)cc(C)c1-c1cc2nc(n1)NS(=O)(=O)c1cccc(c1)C(=O)N(C1CC3(CC3)C1)[C@H](CC(C)C)CO2` [Compound 10, (11R)-6-(4-Fluoro-2,6-dimethyl-phenyl)-11-isobutyl-2,2-dioxo-12-spiro[2.3]hexan-5-yl-9-oxa-2λ^6-thia-3,5,12,19-tetrazatricyclo[12.3.1.14,8]nonadeca-1(18),4(19),5,7,14,16-hexaen-13-one]?
**A.** ring closure, yield after HPLC ([1]; from Cc1cc(F)cc(C)c1-c1cc(OC[C@@H](CC(C)C)NC2CC3(CC3)C2)nc(NS(=O)(=O)c2cccc(C(=O)O)c2)n1, HATU/TEA, 53.7 mM, 25.0 °C, 4.0 h): 48%; Ent. B Max Activity (%) ([2]; Table 9): +++ (+++ is >60%); EC50 ([2]; Table 9, read-out: Ent. B EC50): < 1000 nM

**Q.** Which ring closure, yield after HPLC ([1]; from Cc1cccc(C)c1-c1cc(OC[C@@H](CC(C)C)NC2CC(OC(C)C)C2)nc(NS(=O)(=O)c2cccc(C(=O)O)c2)n1, HATU/Et3N, 59.2 mM, 2.0 h) does the source give for `Cc1cccc(C)c1-c1cc2nc(n1)NS(=O)(=O)c1cccc(c1)C(=O)N(C1CC(OC(C)C)C1)[C@H](CC(C)C)CO2` (stereo partly drawn) [Compound 47, (11R)-6-(2,6-Dimethylphenyl)-11-isobutyl-12-(3-isopropoxycyclobutyl)-2,2-dioxo-9-oxa-2λ^6-thia-3,5,12,19-tetrazatricyclo[12.3.1.14,8]nonadeca-1(18),4(19),5,7,14,16-hexaen-13-one] here?
**A.** 53%

**Q.** What about the “Ent. B Max Activity (%)” value ([2]; Table 9) of the same molecule?
**A.** +++ (+++ is >60%)

**Q.** And the EC50 ([2]; Table 9, read-out: Ent. B EC50)?
**A.** < 1000 nM

**Q.** Which ring closure, yield after HPLC ([1]; from Cc1cccc(C)c1-c1cc(OC[C@@H](CC(C)C)NC2CC3(CC3)C2)nc(NS(=O)(=O)c2cncc(C(=O)O)n2)n1, HATU/DIEA, 15.2 mM, 12.0 h) does the source give for `Cc1cccc(C)c1-c1cc2nc(n1)NS(=O)(=O)c1cncc(n1)C(=O)N(C1CC3(CC3)C1)[C@H](CC(C)C)CO2` [Compound 62, (11R)-6-(2,6-Dimethylphenyl)-11-isobutyl-2,2-dioxo-12-spiro[2.3]hexan-5-yl-9-oxa-2λ^6-thia-3,5,12,16,18,19-hexazatricyclo[12.3.1.14,8]nonadeca-1(18),4(19),5,7,14,16-hexaen-13-one] here?
**A.** 65%

**Q.** What about the “Ent. B Max Activity (%)” value [2] of the same molecule?
**A.** +++ (+++ is >60%)

**Q.** What about the EC50 ([2]; read-out: Ent. B EC50) of the same molecule?
**A.** < 1000 nM

**Q.** With `Cc1cccc(C)c1-c1cc2nc(n1)NS(=O)(=O)c1cc(n(C)n1)C(=O)N(C1CC3(CC3)C1)[C@H](CC(C)C)CO2` [Compound 74, (10R)-15-(2,6-Dimethylphenyl)-10-isobutyl-6-methyl-3,3-dioxo-9-spiro[2.3]hexan-5-yl-12-oxa-3λ^6-thia-2,5,6,9,16,17-hexazatricyclo[11.3.1.14,7]octadeca-1(17),4,7(18),13,15-pentaen-8-one] as the molecule, how does the ring closure, yield after HPLC ([1]; from Cc1cccc(C)c1-c1cc(OC[C@@H](CC(C)C)NC2CC3(CC3)C2)nc(NS(=O)(=O)c2cc(C(=O)O)n(C)n2)n1, HATU/DIPEA, 4.9 mM, 6.0 h, 2 steps) read?
**A.** 10%

**Q.** What about the “Ent. B Max Activity (%)” value ([2]; Table 9) of the same molecule?
**A.** +++ (+++ is >60%)

**Q.** And the EC50 ([2]; Table 9, read-out: Ent. B EC50)?
**A.** < 1000 nM

**Q.** Which ring closure, yield after HPLC ([1]; from COCCn1cc(N[C@@H](COc2cc(-c3c(C)cccc3C)nc(NS(=O)(=O)c3cccc(C(=O)O)c3)n2)CC(C)C)cn1, CDMT/NMM, 48.0 h, 2 steps) does the source give for `COCCn1cc(N2C(=O)c3cccc(c3)S(=O)(=O)Nc3nc(cc(-c4c(C)cccc4C)n3)OC[C@H]2CC(C)C)cn1` [Compound 98, (11R)-6-(2,6-Dimethylphenyl)-11-isobutyl-12-[1-(2-methoxyethyl)pyrazol-4-yl]-2,2-dioxo-9-oxa-2λ^6-thia-3,5,12,19-tetrazatricyclo[12.3.1.14,8]nonadeca-1(18),4(19),5,7,14,16-hexaen-13-one] here?
**A.** 9%

**Q.** And the “Ent. B Max Activity (%)” value ([2]; Table 10)?
**A.** +++ (+++ is >60%)

**Q.** And the EC50 [2, 3]?
**A.** < 1000 nM

**Q.** Which ring closure, yield after HPLC ([1]; from Cc1cccc(C)c1-c1cc(O[C@H](C)CNC2CC3(CC3)C2)nc(NS(=O)(=O)c2cccc(C(=O)O)c2)n1, HATU/DIEA, 7.3 mM, 1.0 h, 2 steps) does the source give for `Cc1cccc(C)c1-c1cc2nc(n1)NS(=O)(=O)c1cccc(c1)C(=O)N(C1CC3(CC3)C1)C[C@@H](C)O2` [Compound 180, (10R)-6-(2,6-Dimethylphenyl)-10-methyl-2,2-dioxo-12-spiro[2.3]hexan-5-yl-9-oxa-2λ^6-thia-3,5,12,19-tetrazatricyclo[12.3.1.14,8]nonadeca-1(18),4(19),5,7,14,16-hexaen-13-one] here?
**A.** 6%

**Q.** And the “Ent. B Max Activity (%)” value [2]?
**A.** +++ (+++ is >60%)

**Q.** And the EC50 ([2]; read-out: Ent. B EC50)?
**A.** < 1000 nM

**Q.** With `Cc1cccc(C)c1-c1cc2nc(n1)NS(=O)(=O)c1cccc(c1)C(=O)N(C1Cc3ccccc3C1)[C@H](CC(C)(C)C)CO2` [Compound 183, (11R)-6-(2,6-Dimethylphenyl)-11-(2,2-dimethylpropyl)-12-indan-2-yl-2,2-dioxo-9-oxa-2λ^6-thia-3,5,12,19-tetrazatricyclo[12.3.1.14,8]nonadeca-1(18),4(19),5,7,14,16-hexaen-13-one] as the molecule, how does the ring closure, yield after HPLC ([1]; from Cc1cccc(C)c1-c1cc(OC[C@@H](CC(C)(C)C)NC2Cc3ccccc3C2)nc(NS(=O)(=O)c2cccc(C(=O)O)c2)n1, CDMT/NMM, 25.7 mM, 24.0 h) read?
**A.** 13%

**Q.** And the “Ent. B Max Activity (%)” value ([2]; Table 10)?
**A.** +++ (+++ is >60%)

**Q.** What about the EC50 [2, 3] of the same molecule?
**A.** < 1000 nM
